A short description of assay [1]: Ionophoric activity across pyranine dye encapsulated pH 7 egg yolk L-alpha-phosphatidylcholine-based large unilamellar vesicles assessed as bromide ion transport by measuring initial rate constant for induction of pH discharge at 0.25 mol% in presence of NaBr loaded external vesicles by fluorescence method (reference value: 2.08 +/- 0.19 10^-2/min).
A short description of assay [2]: Ionophoric activity across egg yolk L-alpha-phosphatidylcholine-based large unilamellar vesicles loaded with LiCl assessed as chloride ion efflux at 3 mol% after 300 seconds in presence of NaNO3 loaded external vesicles by electrode technique.
The nature of assay [3]: Ionophoric activity across egg yolk L-alpha-phosphatidylcholine-based large unilamellar vesicles loaded with CsCl assessed as chloride ion efflux at 3 mol% after 300 seconds in presence of NaNO3 loaded external vesicles by electrode technique.
A short description of assay [4]: Ionophoric activity across egg yolk L-alpha-phosphatidylcholine-based large unilamellar vesicles loaded with RbCl assessed as chloride ion efflux at 3 mol% after 300 seconds in presence of NaNO3 loaded external vesicles by electrode technique.
The nature of assay [5]: Ionophoric activity across egg yolk L-alpha-phosphatidylcholine-based large unilamellar vesicles loaded with KCl assessed as chloride ion efflux at 3 mol% after 300 seconds in presence of NaNO3 loaded external vesicles by electrode technique.
A short description of assay [6]: Ionophoric activity across pyranine dye encapsulated pH 7 egg yolk L-alpha-phosphatidylcholine-based large unilamellar vesicles assessed as chloride ion transport by measuring initial rate constant for induction of pH discharge at 0.5 mol% in presence of NaCl loaded external vesicles by fluorescence method (reference value: 0.81 +/- 0.22 10^-2/min).
The nature of assay [7]: Ionophoric activity across pyranine dye encapsulated pH 7 egg yolk L-alpha-phosphatidylcholine-based large unilamellar vesicles assessed as nitrate ion transport by measuring initial rate constant for induction of pH discharge at 0.25 mol% in presence of NaNO3 loaded external vesicles by fluorescence method (reference value: 2.24 +/- 0.52 10^-2/min).
A short description of assay [8]: Ionophoric activity across pyranine dye encapsulated pH 7 egg yolk L-alpha-phosphatidylcholine-based large unilamellar vesicles assessed as nitrate ion transport by measuring initial rate constant for induction of pH discharge at 0.0313 mol% in presence of NaNO3 loaded external vesicles by fluorescence method (reference value: 2.24 +/- 0.52 10^-2/min).
Assay [9] in a line: Ionophoric activity across pyranine dye encapsulated pH 7 egg yolk L-alpha-phosphatidylcholine-based large unilamellar vesicles assessed as chloride ion transport by measuring initial rate constant for induction of pH discharge at 1 mol% in presence of NaCl loaded external vesicles by fluorescence method (reference value: 0.81 +/- 0.22 10^-2/min).
Assay [10] is described as follows: Ionophoric activity across egg yolk L-alpha-phosphatidylcholine-based large unilamellar vesicles loaded with LiCl assessed as chloride ion efflux at 1 mol% after 300 seconds in presence of NaNO3 loaded external vesicles by electrode technique.
Assay [11] is described as follows: Ionophoric activity across egg yolk L-alpha-phosphatidylcholine-based large unilamellar vesicles loaded with CsCl assessed as chloride ion efflux at 1 mol% after 300 seconds in presence of NaNO3 loaded external vesicles by electrode technique.
The nature of assay [12]: Ionophoric activity across egg yolk L-alpha-phosphatidylcholine-based large unilamellar vesicles loaded with KCl assessed as chloride ion efflux at 1 mol% after 300 seconds in presence of NaNO3 loaded external vesicles by electrode technique.
The nature of assay [13]: Ionophoric activity across pyranine dye encapsulated pH 7 egg yolk L-alpha-phosphatidylcholine-based large unilamellar vesicles assessed as bromide ion transport by measuring initial rate constant for induction of pH discharge at 0.0078 mol% in presence of NaBr loaded external vesicles by fluorescence method (reference value: 2.08 +/- 0.19 10^-2/min).
Assay [14] is described as follows: Ionophoric activity across pyranine dye encapsulated pH 7 egg yolk L-alpha-phosphatidylcholine-based large unilamellar vesicles assessed as nitrate ion transport by measuring initial rate constant for induction of pH discharge at 0.00781 mol% in presence of NaNO3 loaded external vesicles by fluorescence method (reference value: 2.24 +/- 0.52 10^-2/min).
Assay [15] is described as follows: Ionophoric activity across pyranine dye encapsulated pH 7 egg yolk L-alpha-phosphatidylcholine-based large unilamellar vesicles assessed as nitrate ion transport by measuring initial rate constant for induction of pH discharge at 0.03125 mol% in presence of NaNO3 loaded external vesicles by fluorescence method (reference value: 2.24 +/- 0.52 10^-2/min).
Assay [16] can be described thus: Ionophoric activity across pyranine dye encapsulated pH 7 egg yolk L-alpha-phosphatidylcholine-based large unilamellar vesicles assessed as chloride ion transport by measuring initial rate constant for induction of pH discharge at 0.0625 mol% in presence of NaCl loaded external vesicles by fluorescence method (reference value: 0.81 +/- 0.22 10^-2/min).
A short description of assay [17]: Binding affinity to tetrabutylammonium sulphate anion by 1H NMR spectrophotometric method.
The nature of assay [18]: Ionophoric activity across pyranine dye encapsulated pH 7 egg yolk L-alpha-phosphatidylcholine-based large unilamellar vesicles assessed as chloride ion transport by measuring initial rate constant for induction of pH discharge at 0.0078 mol% in presence of NaCl loaded external vesicles by fluorescence method (reference value: 0.81 +/- 0.22 10^-2/min).

SMILES strings stand for the structures. Active and inactive are the calls of the source. No cut-off for these calls is given here.

Regarding `O=c1c(NCCN(CCNc2c(Nc3cc(C(F)(F)F)cc(C(F)(F)F)c3)c(=O)c2=O)CCNc2c(Nc3cc(C(F)(F)F)cc(C(F)(F)F)c3)c(=O)c2=O)c(Nc2cc(C(F)(F)F)cc(C(F)(F)F)c2)c1=O`, the K is 10.8 ×10⁻² /min in assay [1]; 6.63 ×10⁻² /min in assay [6]; 10.2 ×10⁻² /min in assay [7]; 3.2 ×10⁻² /min in [8]; 9.42 ×10⁻² /min in assay [9]. In addition, the result in assay [2], in assay [3], in [4] and in [5] was inactive.
Regarding `O=c1c(NCCN(CCNc2c(Nc3ccc(C(F)(F)F)cc3)c(=O)c2=O)CCNc2c(Nc3ccc(C(F)(F)F)cc3)c(=O)c2=O)c(Nc2ccc(C(F)(F)F)cc2)c1=O`, the outcome in [10], in assay [11] and in assay [12] was inactive. Further, the K in [13] turned out to be 2.59 ×10⁻² /min; in assay [14], 2.53 ×10⁻² /min; in assay [15] it was 4.91 ×10⁻² /min; in assay [16], 2.69 ×10⁻² /min; in [18], 1.27 ×10⁻² /min. Further, the logKa in assay [17] came to 4.87.

The values are drawn from ChEMBL document CHEMBL4014291, “Tripodal squaramide conjugates as highly effective transmembrane anion transporters” (Bioorg Med Chem Lett, 2017).
